# Test results: ChEMBL document CHEMBL1671792, “Conformationally constrained farnesoid X receptor (FXR) agonists: heteroaryl replacements of the naphthalene” (Bioorg Med Chem Lett, 2011)
# Active and inactive are the calls of the source. The rule behind the calls is not given here.
# Key:
# Bile acid receptor [1] = molecular target: T1, Bile acid receptor (Homo sapiens, UniProt Q96RI1); experiment: Agonist activity at human FXR LBD assessed as SRC1 peptide recruitment by FRET assay; assay type: functional
# T1 sequence (Q96RI1 whole entry): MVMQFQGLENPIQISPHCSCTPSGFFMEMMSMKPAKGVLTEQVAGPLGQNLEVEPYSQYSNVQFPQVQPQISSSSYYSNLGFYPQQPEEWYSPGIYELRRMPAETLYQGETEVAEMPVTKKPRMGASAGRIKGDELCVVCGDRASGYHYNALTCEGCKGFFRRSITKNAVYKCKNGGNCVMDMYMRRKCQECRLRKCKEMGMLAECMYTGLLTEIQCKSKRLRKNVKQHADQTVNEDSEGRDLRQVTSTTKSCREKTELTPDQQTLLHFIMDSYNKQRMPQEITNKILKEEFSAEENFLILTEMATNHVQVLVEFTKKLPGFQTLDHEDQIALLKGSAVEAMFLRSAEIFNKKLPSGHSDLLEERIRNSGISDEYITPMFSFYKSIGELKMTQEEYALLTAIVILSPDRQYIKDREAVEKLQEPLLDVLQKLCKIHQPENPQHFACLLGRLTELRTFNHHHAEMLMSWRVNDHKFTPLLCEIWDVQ
# [2] = molecular target: T2, Bile acid receptor (Homo sapiens) (UniProt Q96RI1); experiment: Agonist activity at human FXR LBD assessed as SRC1 peptide recruitment by FRET assay relative to GW 4064; assay type: functional
# T2 sequence (whole entry): T1 sequence (Q96RI1 whole entry)
# Bile acid receptor [3] = molecular target: T1, Bile acid receptor; experiment: Agonist activity at human FXR LBD iexpressed in monkey CV-1 cells assessed as transactivation of luciferase reporter gene expression; assay type: functional, cell-based
# [4] = molecular target: T2, Bile acid receptor (Homo sapiens); experiment: Binding affinity to human FXR by X-ray crystallography
# [5] = molecular target: T2, Bile acid receptor (Homo sapiens); experiment: Agonist activity at human FXR LBD iexpressed in monkey CV-1 cells assessed as transactivation of luciferase reporter gene expression relative to GW 4064; assay type: functional, cell-based; parameters: concentration or dose not given beside the values
# [6] = Half life in iv dosed cynomolgus monkey; assay type: ADME, organism-based, Macaca fascicularis; conditions: in vivo
# [7] = Oral bioavailability in mouse; assay type: ADME, organism-based; conditions: in vivo
# [8] = Clearance in iv dosed cynomolgus monkey; assay type: ADME, organism-based, Macaca fascicularis; conditions: in vivo
# [9] = Volume of distribution at steady state in iv dosed rat; assay type: ADME, organism-based; conditions: in vivo, read-out: Vdss
# Canis familiaris = experiment: Dose normalized AUC in orally dosed Beagle dog; assay type: ADME, organism-based, Canis lupus familiaris; conditions: in vivo, po
# Mus musculus = experiment: Dose normalized AUC in orally dosed mouse; assay type: ADME, organism-based; conditions: in vivo, po
# [10] = Oral bioavailability in cynomolgus monkey; assay type: ADME, organism-based, Macaca fascicularis; conditions: in vivo
# Rattus norvegicus = experiment: Dose normalized AUC in orally dosed rat; assay type: ADME, organism-based; conditions: in vivo, po
# [11] = Oral bioavailability in Beagle dog; assay type: ADME, organism-based, Canis lupus familiaris; conditions: in vivo
# [12] = Half life in iv dosed mouse; assay type: ADME, organism-based; conditions: in vivo
# [13] = Half life in iv dosed rat; assay type: ADME, organism-based; conditions: in vivo
# [14] = Clearance in iv dosed rat; assay type: ADME, organism-based; conditions: in vivo
# [15] = Clearance in iv dosed mouse; assay type: ADME, organism-based; conditions: in vivo
# [16] = Volume of distribution at steady state in iv dosed Beagle dog; assay type: ADME, organism-based, Canis lupus familiaris; conditions: in vivo, read-out: Vdss
# [17] = Volume of distribution at steady state in iv dosed mouse; assay type: ADME, organism-based; conditions: in vivo, read-out: Vdss
# [18] = Clearance in iv dosed Beagle dog; assay type: ADME, organism-based, Canis lupus familiaris; conditions: in vivo
# [19] = Half life in iv dosed Beagle dog; assay type: ADME, organism-based, Canis lupus familiaris; conditions: in vivo
# [20] = Oral bioavailability in rat; assay type: ADME, organism-based; conditions: in vivo
# [21] = Volume of distribution at steady state in iv dosed cynomolgus monkey; assay type: ADME, organism-based, Macaca fascicularis; conditions: in vivo, read-out: Vdss
# Cynomolgus monkey = experiment: Dose normalized AUC in orally dosed cynomolgus monkey; assay type: ADME, organism-based, Macaca fascicularis; conditions: in vivo, po
# Homo sapiens [22] = organism: Homo sapiens; experiment: Selectivity ratio of EC50 for human FXR to EC50 for human PPARdelta
# Homo sapiens [23] = organism: Homo sapiens; experiment: Selectivity ratio of EC50 for human FXR to EC50 for human PPARgamma
# Homo sapiens [24] = organism: Homo sapiens; experiment: Selectivity ratio of EC50 for human FXR to EC50 for human RORalpha
# Homo sapiens [25] = organism: Homo sapiens; experiment: Selectivity ratio of EC50 for human FXR to EC50 for human RXRalpha
# Homo sapiens [26] = organism: Homo sapiens; experiment: Selectivity ratio of EC50 for human FXR to EC50 for human PXR
# Homo sapiens [27] = organism: Homo sapiens; experiment: Selectivity ratio of EC50 for human FXR to EC50 for human LXRbeta
# Homo sapiens [28] = organism: Homo sapiens; experiment: Selectivity ratio of EC50 for human FXR to EC50 for human LRH
# Homo sapiens [29] = organism: Homo sapiens; experiment: Selectivity ratio of EC50 for human FXR to EC50 for human LXRalpha
# Homo sapiens [30] = organism: Homo sapiens; experiment: Selectivity ratio of EC50 for human FXR to EC50 for human PPARalpha
# [31] = Solubility of compound in fasted state-simulated intestinal fluid at pH 6.5; assay type: physicochemical; conditions: simulated gi fluid
smiles,measurement,setting,value
CC(C)c1onc(-c2c(Cl)cccc2Cl)c1COc1ccc(-c2ccc3nc(C(=O)O)cc(O)c3c2)cc1,EC50,Bile acid receptor [1],51 nM
same,Activity,[2],91%
same,EC50,Bile acid receptor [3],> 10000 nM
CC(C)c1onc(-c2c(Cl)cccc2Cl)c1COc1ccc(/C=C/c2cccc(C(=O)O)c2)c(Cl)c1,Activity,[4],Active
CCOc1cc(C(=O)O)nc2ccc(-c3ccc(OCc4c(-c5c(Cl)cccc5Cl)noc4C(C)C)cc3)cc12,EC50,Bile acid receptor [1],52 nM
same,Activity,[5],84%
same,Activity,[2],99%
same,EC50,Bile acid receptor [3],14 nM
Cc1cc(-c2ccc3nc(C(=O)O)ccc3c2)ccc1OCc1c(-c2c(Cl)cccc2Cl)noc1C(C)C,EC50,Bile acid receptor [1],110 nM
same,Activity,[5],94%
same,Activity,[2],100%
same,EC50,Bile acid receptor [3],44 nM
CC(C)c1onc(-c2c(Cl)cccc2Cl)c1COc1ccc(-c2ccc3cc(C(=O)O)ncc3c2)cc1,EC50,Bile acid receptor [1],120 nM
same,half-life,[6],10.3 h
same,bioavailability,[7],6.3%
same,clearance,[8],11 mL/min/kg
same,Vd,[9],1.8 L/kg
same,AUC,Canis familiaris,320 ng·kg·h/mg/mL
same,Activity,[5],86%
same,AUC,Mus musculus,36 ng·kg·h/mg/mL
same,bioavailability,[10],2.5%
same,AUC,Rattus norvegicus,300 ng·kg·h/mg/mL
same,bioavailability,[11],15%
same,Activity,[2],83%
same,half-life,[12],4.17 h
same,half-life,[13],1.47 h
same,clearance,[14],18 mL/min/kg
same,clearance,[15],29 mL/min/kg
same,Vd,[16],2 L/kg
same,Vd,[17],5.1 L/kg
same,clearance,[18],8.2 mL/min/kg
same,half-life,[19],3.83 h
same,bioavailability,[20],30%
same,EC50,Bile acid receptor [3],77 nM
same,Vd,[21],3.1 L/kg
same,Activity,[4],Active
same,AUC,Cynomolgus monkey,40 ng·kg·h/mg/mL
Cc1cc2cc(-c3ccc(OCc4c(-c5c(Cl)cccc5Cl)noc4C(C)C)cc3)ccc2nc1C(=O)O,EC50,Bile acid receptor [1],140 nM
same,Activity,[5],101%
same,Activity,[2],107%
same,EC50,Bile acid receptor [3],38 nM
Cc1cc(C(=O)O)nc2ccc(-c3ccc(OCc4c(-c5c(Cl)cccc5Cl)noc4C(C)C)cc3)cc12,EC50,Bile acid receptor [1],81 nM
same,Activity,[5],107%
same,Activity,[2],108%
same,EC50,Bile acid receptor [3],24 nM
CCCOc1cc(C(=O)O)nc2ccc(-c3ccc(OCc4c(-c5c(Cl)cccc5Cl)noc4C(C)C)cc3)cc12,EC50,Bile acid receptor [1],59 nM
same,Activity,[5],93%
same,Activity,[2],113%
same,EC50,Bile acid receptor [3],22 nM
CC(C)c1onc(-c2c(Cl)cccc2Cl)c1COc1ccc(-c2ccc3c(C(=O)O)ccnc3c2)cc1,EC50,Bile acid receptor [1],340 nM
same,Activity,[5],85%
same,Activity,[2],99%
same,EC50,Bile acid receptor [3],560 nM
CC(C)Oc1cc(C(=O)O)nc2ccc(-c3ccc(OCc4c(-c5c(Cl)cccc5Cl)noc4C(C)C)cc3)cc12,EC50,Bile acid receptor [1],40 nM
same,Activity,[5],103%
same,Activity,[2],113%
same,EC50,Bile acid receptor [3],14 nM
CC(C)COc1cc(C(=O)O)nc2ccc(-c3ccc(OCc4c(-c5c(Cl)cccc5Cl)noc4C(C)C)cc3)cc12,EC50,Bile acid receptor [1],78 nM
same,Activity,[5],93%
same,Activity,[2],105%
same,EC50,Bile acid receptor [3],81 nM
COc1cc(C(=O)O)nc2ccc(-c3ccc(OCc4c(-c5c(Cl)cccc5Cl)noc4C(C)C)cc3)cc12,EC50,Bile acid receptor [1],58 nM
same,Activity,[5],107%
same,Activity,[2],113%
same,EC50,Bile acid receptor [3],17 nM
Cc1nc(C(=O)O)nc2ccc(-c3ccc(OCc4c(-c5c(Cl)cccc5Cl)noc4C(C)C)cc3)cc12,EC50,Bile acid receptor [1],140 nM
same,Activity,[5],127%
same,Activity,[2],102%
same,EC50,Bile acid receptor [3],1000 nM
CC(C)c1onc(-c2c(Cl)cccc2Cl)c1COc1ccc(-c2ccc3nc(C(=O)O)cnc3c2)cc1,EC50,Bile acid receptor [1],150 nM
same,Activity,[5],109%
same,Activity,[2],96%
same,EC50,Bile acid receptor [3],690 nM
CC(C)c1onc(-c2c(Cl)cccc2Cl)c1COc1ccc(-c2ccc3c(C(=O)O)cccc3c2)cc1,Ratio EC50,Homo sapiens [22],100
same,Ratio EC50,Homo sapiens [23],100
same,Ratio EC50,Homo sapiens [24],100
same,Ratio EC50,Homo sapiens [25],100
same,Ratio EC50,Homo sapiens [26],100
same,Ratio EC50,Homo sapiens [27],100
same,Activity,[5],104%
same,AUC,Rattus norvegicus,23 ng·kg·h/mg/mL
same,Activity,[2],134%
same,Ratio EC50,Homo sapiens [28],100
same,Ratio EC50,Homo sapiens [29],100
same,Ratio EC50,Homo sapiens [30],100
same,solubility,[31],1 ng/mL
same,Activity,[4],Active
same,AUC,Cynomolgus monkey,1130 ng·kg·h/mg/mL
CC(C)c1onc(-c2c(Cl)cccc2Cl)c1COc1ccc(-c2cc3ccc(C(=O)O)nc3cc2F)cc1,EC50,Bile acid receptor [1],240 nM
same,Activity,[5],107%
same,Activity,[2],115%
same,EC50,Bile acid receptor [3],110 nM
CC(C)c1onc(-c2c(Cl)cccc2Cl)c1COc1ccc(-c2ccc3nc(C(=O)O)nnc3c2)cc1,EC50,Bile acid receptor [1],360 nM
same,Activity,[2],100%
same,EC50,Bile acid receptor [3],> 10000 nM
CCc1cc(C(=O)O)nc2ccc(-c3ccc(OCc4c(-c5c(Cl)cccc5Cl)noc4C(C)C)cc3)cc12,EC50,Bile acid receptor [1],75 nM
same,Activity,[5],109%
same,Activity,[2],106%
same,EC50,Bile acid receptor [3],32 nM
CC(C)c1onc(-c2c(Cl)cccc2Cl)c1COc1ccc(-c2ccc3c(C(=O)O)nccc3c2)cc1,EC50,Bile acid receptor [1],380 nM
same,Activity,[5],102%
same,Activity,[2],92%
same,EC50,Bile acid receptor [3],190 nM
Cc1cc(OCc2c(-c3c(Cl)cccc3Cl)noc2C(C)C)ccc1-c1ccc2nc(C(=O)O)ccc2c1,EC50,Bile acid receptor [1],250 nM
same,Activity,[5],91%
same,Activity,[2],87%
same,EC50,Bile acid receptor [3],52 nM
CC(C)c1onc(-c2c(Cl)cccc2Cl)c1COc1ccc(-c2ccc3cc(C(=O)O)cnc3c2)cc1,EC50,Bile acid receptor [1],200 nM
same,Activity,[5],88%
same,Activity,[2],87%
same,EC50,Bile acid receptor [3],260 nM
